Laboratory results published in patent US7943628B2, “Pyrimidine derivatives” (Pfizer Limited, priority 2005, dated 2011).

These compounds were tested against T1, histamine H4 receptor (Homo sapiens, UniProt Q9H3N8) (assay: H4 binding, method 1 ([3H]-histamine filtration binding on CHO cell membranes)). Details: 1.5 h.
T1 construct: expressed in transfected cells; host or cells: CHO cells
Procedure, shortened: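 Membranes from CHO cells expressing human H4 receptor (20-35 μg/well) incubated 90 min at room temperature with 3 nM [3H]-histamine in 50 mM Tris-HCl pH 7.4, ± competitor. Bound label separated by filtration on PEI-soaked GF/B filters and counted by scintillation; non-specific binding with 10 μM JNJ7777120.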

T1 sequence (Q9H3N8 whole entry): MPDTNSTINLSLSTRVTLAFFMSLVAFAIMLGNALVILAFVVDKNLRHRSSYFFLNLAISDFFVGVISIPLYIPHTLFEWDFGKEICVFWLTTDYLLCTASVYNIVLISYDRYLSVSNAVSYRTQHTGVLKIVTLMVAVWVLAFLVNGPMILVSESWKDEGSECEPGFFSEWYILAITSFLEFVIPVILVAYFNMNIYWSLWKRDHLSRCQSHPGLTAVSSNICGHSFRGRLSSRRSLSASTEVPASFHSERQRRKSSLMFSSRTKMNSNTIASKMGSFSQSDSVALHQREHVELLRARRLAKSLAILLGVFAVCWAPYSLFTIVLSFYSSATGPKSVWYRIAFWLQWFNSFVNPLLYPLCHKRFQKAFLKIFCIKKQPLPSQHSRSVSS

SMILES	inhibition at 10 µM [%]
CN1CCN(c2cc(NC(C)(C)C)nc(N)n2)CC1 [Example 223, N^4-(tert-Butyl)-6-(4-methylpiperazin-1-yl)pyrimidine-2,4-diamine]	13

Same assay, conditions: H4 binding, method 1; Ki calculated from IC50 (Cheng-Prussoff)

SMILES	Ki [nM]
CC(C)CNc1cc(N2CCC(N)CC2)nc(N)n1 [Example 229, 6-(4-Aminopiperidin-1-yl)-N^4-isobutylpyrimidine-2,4-diamine]	127
CCCNc1cc(N2CC(NC)C2)ncn1 [Example 206, 6-[3-(Methylamino)azetidin-1-yl]-N-propylpyrimidin-4-amine]	39.9
CCCNc1cc(N2CC(C)(NC)C2)nc(N)n1 [Example 140, 6-[3-Methyl-3-(methylamino)azetidin-1-yl]-N^4-propylpyrimidine-2,4-diamine]	12.1
C[C@@H]1CN(c2cc(NCc3cccc(F)c3)nc(N)n2)CCN1 [Example 267, N^4-(3-Fluorobenzyl)-6-[(3R)-3-methylpiperazin-1-yl]pyrimidine-2,4-diamine]	715
CCCNc1cc(N2CCC(N)CC2)nc(N)n1 [Example 266, 6-(4-Aminopiperidin-1-yl)-N^4-propylpyrimidine-2,4-diamine]	708
CC[C@H](C)Nc1cc(N2CC(NC)C2)nc(N)n1 [Example 161, 6-[3-(Methylamino)azetidin-1-yl]-N^4-[(1S)-1-methylpropyl]pyrimidine-2,4-diamine]	2.75
CC(C)(C)CNc1cc(N2CC(N3CCCC3)C2)nc(N)n1 [Example 142, N^4-(2,2-Dimethylpropyl)-6-(3-pyrrolidin-1-ylazetidin-1-yl)pyrimidine-2,4-diamine]	3.04
Nc1nc(NCc2cccc(F)c2F)cc(N2CC[C@@H](N)C2)n1 [Example 255, 6-[(3R)-3-Aminopyrrolidin-1-yl]-N^4-(2,3-difluorobenzyl)pyrimidine-2,4-diamine]	452
CN[C@@H]1CCN(c2cc(NC(C)C)ncn2)C1 [Example 202, N-Isopropyl-6-[(3R)-3-(methylamino)pyrrolidin-1-yl]pyrimidin-4-amine]	36.5
CN[C@@H]1CCN(c2cc(NCC3CCC3)nc(N)n2)C1 [Example 243, N^4-(Cyclobutylmethyl)-6-[(3R)-3-(methylamino)pyrrolidin-1-yl]pyrimidine-2,4-diamine]	266

Same assay, conditions: top dose 10 μM

SMILES	Method 1, activity at top dose (10 μM)
CC(C)(C)CNc1cc(N2C[C@H]3CCCN[C@H]3C2)nc(N)n1 [Example 318, N^4-(2,2-Dimethylpropyl)-6-[(4aR,7aR)-octahydro-6H-pyrrolo[3,4-b]pyridin-6-yl]pyrimidine-2,4diamine]	No activity at top

The compounds below were run against T1, histamine H4 receptor (assay: H4 binding, method 2 ([3H]-histamine binding with Ysi WGA beads on CHO cell membranes)). Details: H4 binding, method 2; Ki calculated from IC50 (Cheng-Prussoff); read-out: Method 2 (Ki (nM)).
Method: Cell pellets from CHO cells expressing the histamine H4 receptor were homogenised in ice-cold 50 mM Tris-HCl/0.5 mM CaCl2 buffer containing a protease inhibitor cocktail (Roche®, United Kingdom) using a ground glass homogeniser. Homogenates were centrifuged at 48000 g for 30 min at 4° C. The membrane pellet was resuspended in fresh buffer and the centrifugation step was repeated as described above. The membrane pellet was resuspended in 50 mM Tris-HCl in the same volume as the original cell pellet. Aliquots of membrane preparations were stored at −80° C. and were used for [^3H]-Histamine binding experiments.
Cell membranes (15 μg/well) were pre-incubated for 120 min shaking at 4° C. with Ysi WGA beads (250 μg/well) in 50 mM Tris-HCl (pH 7.4) followed by centrifugation at 1500 rpm for 5 minutes and resuspension in 50 mM Tris-HCl (pH 7.4). The membrane/bead mixture (15 μg membrane/250 μg beads well) was incubated for 90 minutes shaking at room temperature with 6.5 nM [2,5-^3H] Histamine dihydrochloride (30-60 Ci/mmol) in 50 mM Tris-HCl (pH 7.4), with or without competing H4 ligands. Non-specific binding was defined with 10 μM JNJ7777120. Bound radiolabel was determined using scintillation counting techniques after 90 minutes.

SMILES	Ki [nM]
Cc1c(NCC(C)C)ncnc1N1CCN(C)CC1 [Example 116, N-Isobutyl-5-methyl-6-(4-methylpiperazin-1-yl)pyrimidin-4-amine]	426
CNC1CN(c2cc(NCc3ccccc3C(F)(F)F)nc(N)n2)C1 [Example 84, 6-[3-(Methylamino)azetidin-1-yl]-N^4-[2-(trifluoromethyl)benzyl]pyrimidine-2,4-diamine]	21.7
CNC1CN(c2cc(NCc3cccc(C)c3)nc(N)n2)C1 [Example 83, 6-[3-(Methylamino)azetidin-1-yl]-N^4-(3-methylbenzyl)pyrimidine-2,4-diamine]	62.3
CN1CCN(c2cc(NC[C@@H]3CCCO3)ncn2)CC1 [Example 112, 6-(4-Methylpiperazin-1-yl)-N-[(2S)-tetrahydrofuran-2-ylmethyl]pyrimidin-4-amine]	635
CN[C@@H]1CCN(c2cc(NCCC(C)(C)C)ncn2)C1 [Example 109, N-(3,3-Dimethylbutyl)-6-[(3R)-3-(methylamino)pyrrolidin-1-yl]pyrimidin-4-amine]	42.7
COCCNc1cc(N2CCN(C)CC2)ncn1 [Example 110, N-(2-Methoxyethyl)-6-(4-methylpiperazin-1-yl)pyrimidin-4-amine]	829
CNC1CN(c2cc(N3CCCC3)ncn2)C1 [Example 336, N-Methyl-1-(6-pyrrolidin-1-ylpyrimidin-4-yl)azetidin-3-amine]	6330
CN[C@@H]1CCN(c2cc(NCC3CC3)ncn2)C1 [Example 15, N-(Cyclopropylmethyl)-6-[(3R)-3-(methylamino)pyrrolidin-1-yl] pyrimidin-4-amine]	19.2
CC(C)CCNc1cc(N2CCN(C)CC2)nc(N)n1 [Example 108, N^4-(3-Methylbutyl)-6-(4-methylpiperazin-1-yl)pyrimidine-2,4-diamine]	8.42
CN(C)[C@@H]1CCN(c2cc(NCC3CC3)ncn2)C1 [Example 19, N-(Cyclopropylmethyl)-6-[(3R)-3-(dimethylamino)pyrrolidin-1-yl]pyrimidin-4-amine]	132
CNC1CN(c2cc(NCc3ccc(C(F)(F)F)cc3)nc(N)n2)C1 [Example 85, 6-[3-(Methylamino)azetidin-1-yl]-N^4-[4-(trifluoromethyl)benzyl]pyrimidine-2,4-diamine]	156
CN1C[C@@H]2CN(c3cc(NC4CCC4)nc(N)n3)C[C@@H]2C1 [Example 43, N^4-Cyclobutyl-6-[(3aR*,6aS*)-5-methylhexahydro-pyrrolo[3,4-c]pyrrol-2(1H)-yl]pyrimidine-2,4-diamine]	236
CNc1cc(N2CC(NC)C2)nc(N)n1 [Example 69, N^4-Methyl-6-[3-(methylamino)azetidin-1-yl]pyrimidine-2,4-diamine]	9.38
CN1CCN(c2cc(N3CCCC3)ncn2)CC1 [Example 114, 4-(4-Methylpiperazin-1-yl)-6-pyrrolidin-1-ylpyrimidine]	1030
CNC1CN(c2cc(NCc3ccc(C)cc3)nc(N)n2)C1 [Example 88, 6-[3-(Methylamino)azetidin-1-yl]-N^4-(4-methylbenzyl)pyrimidine-2,4-diamine]	35.8
CC(C)(C)CCNc1cc(N2CC[C@H](N3CCCC3)C2)nc(N)n1 [Example 332, 6-[(3′S)-1,3′-Bipyrrolidin-1′-yl]-N^4-(3,3-dimethylbutyl)pyrimidine-2,4-diamine]	2690
C[C@@H]1CN(c2cc(NCCC(C)(C)C)nc(N)n2)CCN1 [Example 93, N^4-(3,3-Dimethylbutyl)-6-[(3R)-3-methylpiperazin-1-yl]pyrimidine-2,4-diamine]	256
CNC1CN(c2cc(NC3CC3)nc(N)n2)C1 [Example 72, N^4-Cyclopropyl-6-[3-(methylamino)azetidin-1-yl]pyrimidine-2,4-diamine]	11.9
CN1CCN(c2cc(NCCC(C)(C)C)nc(N(C)C)n2)CC1 [Example 330, N^4-(3,3-Dimethylbutyl)-N^2,N^2-dimethyl-6-(4-methylpiperazin-1-yl)pyrimidine-2,4-diamine]	1440
CNC1CN(c2cc(NCc3cccc(F)c3)ncn2)C1 [Example 45, (3-Fluoro-benzyl)-[6-(3-methylamino-azetidin-1-yl)-pyrimidin-4-yl]-amine]	420
CCNc1cc(N2CC[C@H](NC)C2)ncn1 [Example 16, N-Ethyl-6-[(3S)-3-(methyl-amino)pyrrolidin-1-yl] pyrimidin-4-amine]	1740
CNC1CN(c2cc(NCc3ccccc3Cl)ncn2)C1 [Example 52, N-(2-Chlorobenzyl)-6-[3-(methylamino)azetidin-1-yl]pyrimidin-4-amine]	99.7
C[C@@H]1CN(c2cc(NCC(C)(C)C)nc(N)n2)CCN1 [Example 95, N^4-(2,2-Dimethylpropyl)-6-[(3R)-3-methylpiperazin-1-yl]pyrimidine-2,4-diamine]	9.11
CN1CCN(c2cc(NCCC(F)(F)F)ncn2)CC1 [Example 115, 6-(4-Methylpiperazin-1-yl)-N-(3,3,3-trifluoropropyl)pyrimidin-4-amine]	494

Same assay, conditions: Method 2 (Ki (nM)), H4 binding, method 2; Ki calculated from IC50 (Cheng-Prussoff)

SMILES	Ki [nM]
CN1C[C@@H]2CN(c3cc(NCC(C)(C)C)nc(N)n3)C[C@@H]2C1 [Example 39, N^4-(2,2-Dimethylpropyl)-6-[(3aR*,6aS*)-5-methylhexahydro-pyrrolo[3,4-c]pyrrol-2(1H)-yl]pyrimidine-2,4-diamine]	88.9
Nc1nc(NC2CC2)cc(N2C[C@H]3CCCN[C@H]3C2)n1 (racemic) [Example 31, N^4-Cyclopropyl-6-[(4aR*,7aR*)-octahydro-6H-pyrrolo[3,4-b]pyridin-6-yl] pyrimidine-2,4-diamine]	21.1
CCNc1cc(N2CCN[C@H](C)C2)nc(N)n1 [Example 97, N^4-Ethyl-6-[(3R)-3-methylpiperazin-1-yl]pyrimidine-2,4-diamine]	43.7
CC(C)(C)CNc1cc(N2C[C@H]3CCCN[C@H]3C2)ncn1 (racemic) [Example 127, N-(2,2-Dimethylpropyl)-6-[(4aR*,7aR*)-octahydro-6H-pyrrolo[3,4-bjpyridin-6-yl]pyrimidin-4-amine]	65.8

Same assay, conditions: at 40 μM

SMILES	Method 2, % at 40 μM [% at 40 μM]
c1nc(NC[C@H]2CCCO2)cc(N[C@@H]2CCNC2)n1 [Example 345, N-[(3R)-Pyrrolidin-3-yl]-N′-[(2R)-tetrahydrofuran-2-ylmethyl]pyrimidine-4,6-diamine]	49
